ChEMBL document CHEMBL4392834, “Polymorphs, co-crystal structure and pharmacodynamics study of MBRI-001, a deuterium-substituted plinabulin derivative as a tubulin polymerization inhibitor” (Bioorg Med Chem, 2019)

Key:
[1] = system: A549; test: Antiproliferative activity in human A549 cells assessed as inhibition of cell proliferation at 12.5 nM incubated for 72 hrs by MTT assay; assay type: functional; settings: A549, 72 h
[2] = system: A549; test: Antiproliferative activity in human A549 cells assessed as inhibition of cell proliferation at 3.125 nM incubated for 72 hrs by MTT assay; assay type: functional; settings: A549, 72 h
[3] = system: A549; test: Antitumor activity against human A549 cells xenografted in Balb/c nude mouse assessed as tumor volume at 12 mg/kg, iv dosed as Q3D x 3 weeks regime relative to untreated control; assay type: functional
[4] = Toxicity in human A549 cells xenografted Balb/c nude mouse assessed as body weight change weight at 6 mg/kg, iv dosed on day 0, 3, 6, 9, 12, 15 and 18 regime (reference value: 6.96%); assay type: organism-based; settings: in vivo
[5] = system: A549; test: Antiproliferative activity in human A549 cells assessed as inhibition of cell proliferation at 1.5625 nM incubated for 72 hrs by MTT assay; assay type: functional; settings: A549, 72 h
[6] = system: A549; test: Antiproliferative activity in human A549 cells assessed as inhibition of cell proliferation at 6.25 nM incubated for 72 hrs by MTT assay; assay type: functional; settings: A549, 72 h
[7] = system: A549; test: Antitumor activity against human A549 cells xenografted in Balb/c nude mouse assessed as tumor weight at 6 mg/kg, iv dosed as Q3D x 3 weeks regime (reference value: 0.596 +/- 0.042 g); assay type: functional
[8] = system: NCI-H1975; test: Cytotoxicity in human NCI-H1975 cells assessed as reduction in cell viability incubated for 72 hrs by MTT assay; assay type: functional, cell-based; settings: NCI-H1975, 72 h
[9] = system: A549; test: Antiproliferative activity in human A549 cells assessed as inhibition of cell proliferation at 25 nM incubated for 72 hrs by MTT assay; assay type: functional; settings: A549, 72 h
[10] = system: NCI-H1975; test: Antiproliferative activity in human NCI-H1975 cells assessed as inhibition of cell proliferation at 12.5 nM incubated for 72 hrs by MTT assay; assay type: functional; settings: NCI-H1975, 72 h
[11] = system: NCI-H1975; test: Antiproliferative activity in human NCI-H1975 cells assessed as inhibition of cell proliferation at 50 nM incubated for 72 hrs by MTT assay; assay type: functional; settings: NCI-H1975, 72 h
[12] = Toxicity in human A549 cells xenografted Balb/c nude mouse assessed as body weight change weight at 12 mg/kg, iv dosed on day 0, 3, 6, 9, 12, 15 and 18 regime (reference value: 6.96%); assay type: organism-based; settings: in vivo
[13] = system: A549; test: Antitumor activity against human A549 cells xenografted in Balb/c nude mouse assessed as tumor weight at 3 mg/kg, iv dosed as Q3D x 3 weeks regime (reference value: 0.596 +/- 0.042 g); assay type: functional
[14] = system: NCI-H1975; test: Antiproliferative activity in human NCI-H1975 cells assessed as inhibition of cell proliferation at 25 nM incubated for 72 hrs by MTT assay; assay type: functional; settings: NCI-H1975, 72 h
[15] = system: NCI-H1975; test: Antiproliferative activity in human NCI-H1975 cells assessed as inhibition of cell proliferation at 1.5625 nM incubated for 72 hrs by MTT assay; assay type: functional; settings: NCI-H1975, 72 h
[16] = system: A549; test: Cytotoxicity in human A549 cells assessed as reduction in cell viability incubated for 72 hrs by MTT assay; assay type: functional, cell-based; settings: A549, 72 h
[17] = system: NCI-H1975; test: Antiproliferative activity in human NCI-H1975 cells assessed as inhibition of cell proliferation at 3.125 nM incubated for 72 hrs by MTT assay; assay type: functional; settings: NCI-H1975, 72 h
[18] = system: A549; test: Antitumor activity against human A549 cells xenografted in Balb/c nude mouse assessed as tumor volume at 3 mg/kg, iv dosed as Q3D x 3 weeks regime relative to untreated control; assay type: functional
[19] = system: A549; test: Antitumor activity against human A549 cells xenografted in Balb/c nude mouse assessed as tumor volume at 6 mg/kg, iv dosed as Q3D x 3 weeks regime relative to untreated control; assay type: functional
[20] = system: A549; test: Antitumor activity against human A549 cells xenografted in Balb/c nude mouse assessed as tumor weight at 12 mg/kg, iv dosed as Q3D x 3 weeks regime (reference value: 0.596 +/- 0.042 g); assay type: functional
[21] = Toxicity in human A549 cells xenografted Balb/c nude mouse assessed as body weight change weight at 3 mg/kg, iv dosed on day 0, 3, 6, 9, 12, 15 and 18 regime (reference value: 6.96%); assay type: organism-based; settings: in vivo
[22] = system: A549; test: Antiproliferative activity in human A549 cells assessed as inhibition of cell proliferation at 50 nM incubated for 72 hrs by MTT assay; assay type: functional; settings: A549, 72 h
[23] = system: NCI-H1975; test: Antiproliferative activity in human NCI-H1975 cells assessed as inhibition of cell proliferation at 6.25 nM incubated for 72 hrs by MTT assay; assay type: functional; settings: NCI-H1975, 72 h
[24] = Toxicity in Balb/c nude mouse dosed intravenously every 3 days for consecutive 21 days; assay type: organism-based; settings: in vivo, iv
[25] = Toxicity in human A549 cells xenografted Balb/c nude mouse assessed as body weight change weight at 10 mg/kg, iv dosed on day 0, 7 and 14 (reference value: 6.96%); assay type: organism-based; settings: in vivo
[26] = system: A549; test: Antitumor activity against human A549 cells xenografted in Balb/c nude mouse assessed as tumor volume at 10 mg/kg, iv dosed as QW x 3 weeks regime relative to untreated control; assay type: functional
[27] = system: A549; test: Antitumor activity against human A549 cells xenografted in Balb/c nude mouse assessed as tumor weight at 10 mg/kg, iv dosed as QW x 3 weeks regime (reference value: 0.596 +/- 0.042 g); assay type: functional
[28] = molecular target: Tubulin (Homo sapiens) (UniProt P68371+Q9H4B7+P0DPH7+P68366+Q13509+Q71U36+P04350+Q3ZCM7+P07437+P68363+Q9BQE3+Q6PEY2+Q13885+Q9BVA1+Q9BUF5); test: Inhibition of tubulin (unknown origin) polymerization at 5 uM; assay type: protein-complex assay

Compound | inhibition at 0.0125 µM [1] [%] | inhibition at 0.003125 µM [2] [%] | T/C [3] [%] | Activity [4] [%] | inhibition at 0.0015625 µM [5] [%] | inhibition at 0.00625 µM [6] [%] | Activity [7] [g] | IC50 [8] [nM] | inhibition at 0.025 µM [9] [%] | inhibition at 0.0125 µM [10] [%] | inhibition at 0.05 µM [11] [%] | Activity [12] [%] | inhibition at 0.025 µM [14] [%] | inhibition at 0.0015625 µM [15] [%] | IC50 [16] [nM] | inhibition at 0.003125 µM [17] [%] | T/C [19] [%] | Activity [20] [g] | inhibition at 0.05 µM [22] [%] | inhibition at 0.00625 µM [23] [%] | further results
[2H]/C(c1nc[nH]c1C(C)(C)C)=c1/[nH]c(=O)/c(=C/c2ccccc2)[nH]c1=O | 83.2 to 86.3 | 54.8 to 61.6 | 54.39 | 6.78 | 0.92 to 9.22 | 82 to 86.7 | 0.344 | 9.3 | 88 to 88.7 | 70.7 to 81.7 | 90.8 to 91.7 | 2.36 | 90.4 to 91.5 | 2.75 to 10.3 | 2.5 | 3.64 to 12.3 | 59.01 | 0.308 | 83.2 to 87.9 | 12.3 to 22.6 | Activity [13]: 0.442 g; T/C [18]: 70.88%; Activity [21]: 6.75%; LD50 at 21 days [24]: 18.9 mg/kg
CC(=O)O[C@@]12CO[C@@H]1C[C@H](O)[C@@]1(C)C(=O)[C@H](O)C3=C(C)[C@@H](OC(=O)[C@H](O)[C@@H](NC(=O)OC(C)(C)C)c4ccccc4)C[C@@](O)([C@@H](OC(=O)c4ccccc4)[C@H]21)C3(C)C [DOCETAXEL ANHYDROUS] | – | – | – | – | – | – | – | – | – | – | – | – | – | – | – | – | – | – | – | – | Activity [25]: -0.66%; T/C [26]: 26.5%; Activity [27]: 0.13 g
CC(C)(C)c1[nH]cnc1/C=c1\[nH]c(=O)/c(=C/c2ccccc2)[nH]c1=O [PLINABULIN] | 85.1 to 88.9 | 42.5 to 50.8 | 56.7 | 5.66 | 23.3 to 29.4 | 88 to 88.7 | 0.349 | 10.2 | 88.4 to 89.5 | 61.1 to 69.1 | 88.7 to 91.3 | 6.33 | 86.3 to 90.8 | 1.03 to 11.2 | 3.5 | 3.89 to 15.5 | 61.48 | 0.327 | 86.6 to 89.2 | 13.3 to 25.7 | inhibition [28]: 27.9%; inhibition ([28]; tested as the 2H-labelled form): 30.1%
